In patent US20260184675A1, “CHIRAL ISOMERIC SULFITE COMPOUND AND APPLICATION THEREOF” (Chengdu Hanova BioSciences Co., Ltd, priority 2024, published 2026):

Experiments:
Type in all cases: in vivo
[1] = tested on: pest eggs of Tetranychus cinnabarinus; assay: Effect on hatching of pest eggs of Tetranychus cinnabarinus, leaf disc method; details: for Hatching rate (%): 7 days after insecticide delivery; for inhibitory effect on the hatching of pest eggs of Tetranychus cinnabarinus (in words): 1 ppm
Outline: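 Adult female mites laid eggs on 2.0 cm Vicia faba leaf discs for up to 36 h; discs with counted eggs were dipped 10 s in compound solution or water, then kept moist. Hatched eggs were counted 7 days after treatment and control effect was calculated by formula.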

eggs of Aleyrodidae = assay: Effect on hatching of eggs of Aleyrodidae, leaf disc method; details: 10 ppm; for Hatching rate (%), Replicate 1 / Hatching rate (%), Replicate 2 / Hatching rate (%), Replicate 3 / Number of hatched larvae 5 days after insecticide delivery, Replicate 1 / Number of hatched larvae 5 days after insecticide delivery, Replicate 2 / Number of hatched larvae 5 days after insecticide delivery, Replicate 3: Aleyrodidae eggs; for Hatching rate (%), Replicate 1 / Hatching rate (%), Replicate 2 / Hatching rate (%), Replicate 3: 5 days after delivery; for Number of hatched larvae 5 days after insecticide delivery, Replicate 1 / Number of hatched larvae 5 days after insecticide delivery, Replicate 2 / Number of hatched larvae 5 days after insecticide delivery, Replicate 3: leaf disc
Outline: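 Leaf discs carrying Aleyrodidae eggs were first examined microscopically to record a baseline egg count. They were then dipped for 10 seconds in compound solution at 10 ppm or in clear water, taken out, and incubated with humidity maintained. Five days after delivery, the number of hatched larvae was recorded to assess hatching inhibition.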

[2] = tested on: eggs of Harmonia axyridis; assay: Effect on hatching of eggs of Harmonia axyridis, egg card immersion; details: 100 ppm; for Number of hatched larvae 4 days after insecticide delivery, Replicate 1 / Number of hatched larvae 4 days after insecticide delivery, Replicate 2 / Number of hatched larvae 4 days after insecticide delivery, Replicate 3: Harmonia axyridis egg cards, immersed 30 seconds; for Hatching rate (%), Replicate 1 / Hatching rate (%), Replicate 2 / Hatching rate (%), Replicate 3: Harmonia axyridis eggs, 4 days after delivery
Outline: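 Egg cards (~20 eggs each) dipped 30 s in 100 ppm insecticide, air dried and kept moist at 27° C; 5 cards per treatment, 3 replicates. Hatching assessed 4 days after treatment against pre-treatment egg counts, and control effect calculated by formula.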

SMILES | Hatching rate (%) ([1]; 0.25 mg/L, Replicate 1) | Hatching rate (%) ([1]; 0.25 mg/L, Replicate 2) | Number of hatched larvae 7 days after insecticide delivery ([1]; 0.25 mg/L, Replicate 1) | Number of hatched larvae 7 days after insecticide delivery ([1]; 0.25 mg/L, Replicate 2) | Hatching rate (%) ([1]; 0.5 mg/L, Replicate 1) | Hatching rate (%) ([1]; 0.5 mg/L, Replicate 2) | Number of hatched larvae 7 days after insecticide delivery ([1]; 0.5 mg/L, Replicate 1) | Number of hatched larvae 7 days after insecticide delivery ([1]; 0.5 mg/L, Replicate 2) | Hatching rate (%) ([1]; 1 mg/L, Replicate 1) | Hatching rate (%) ([1]; 1 mg/L, Replicate 2) | Number of hatched larvae 7 days after insecticide delivery ([1]; 1 mg/L, Replicate 1) | Number of hatched larvae 7 days after insecticide delivery ([1]; 1 mg/L, Replicate 2) | inhibitory effect on the hatching of pest eggs of Tetranychus cinnabarinus (in words) [1] | inhibitory activity on the hatching of eggs of Aleyrodidae (in words) (eggs of Aleyrodidae) | inhibitory activity on the hatching of eggs of Harmonia axyridis (in words) [2] | Hatching rate (%), Replicate 1 (eggs of Aleyrodidae) [%] | Hatching rate (%), Replicate 2 (eggs of Aleyrodidae) [%] | Hatching rate (%), Replicate 3 (eggs of Aleyrodidae) [%] | Number of hatched larvae 5 days after insecticide delivery, Replicate 1 (eggs of Aleyrodidae) | Number of hatched larvae 5 days after insecticide delivery, Replicate 2 (eggs of Aleyrodidae) | also measured
CC[C@@H](COS(=O)OCCF)Oc1ccc(Cl)cc1Cl (stereo partly drawn) [19′-(S,R)] | 68.49 | 69.23 | 23 | 20 | 35.09 | 32.79 | 37 | 41 | 0.00 | 1.85 | 68 | 53 |  |  |  |  |  |  |  |  | Hatching rate (%), Replicate 1 (eggs of Aleyrodidae; listed as 19′-(S, R)): 10.53%; Hatching rate (%), Replicate 2 (eggs of Aleyrodidae; listed as 19′-(S, R)): 10.24%; Hatching rate (%), Replicate 3 (eggs of Aleyrodidae; listed as 19′-(S, R)): 10.20%; Number of hatched larvae 5 days after insecticide delivery, Replicate 1 (eggs of Aleyrodidae; listed as 19′-(S, R)): 10; Number of hatched larvae 5 days after insecticide delivery, Replicate 2 (eggs of Aleyrodidae; listed as 19′-(S, R)): 13; Number of hatched larvae 5 days after insecticide delivery, Replicate 3 (eggs of Aleyrodidae; listed as 19′-(S, R)): 10; Number of hatched larvae 4 days after insecticide delivery, Replicate 1 ([2]; listed as 19′-(S, R)): 10; Number of hatched larvae 4 days after insecticide delivery, Replicate 2 ([2]; listed as 19′-(S, R)): 10; Number of hatched larvae 4 days after insecticide delivery, Replicate 3 ([2]; listed as 19′-(S, R)): 11; Hatching rate (%), Replicate 1 ([2]; listed as 19′-(S, R)): 10.42%; Hatching rate (%), Replicate 2 ([2]; listed as 19′-(S, R)): 9.35%; Hatching rate (%), Replicate 3 ([2]; listed as 19′-(S, R)): 9.82%
CC[C@@H](COS(=O)OCCF)Oc1ccc(Cl)cc1Cl (stereo partly drawn) [19′-(S,S)] | 40.82 | 39.73 | 29 | 44 | 5.71 | 3.57 | 66 | 54 | 0.00 | 0.00 | 56 | 49 | excellent inhibitory effects | strong inhibitory activities | strong inhibitory activities |  |  |  |  |  | Hatching rate (%), Replicate 1 (eggs of Aleyrodidae; listed as 19′-(S, S)): 0.00%; Hatching rate (%), Replicate 2 (eggs of Aleyrodidae; listed as 19′-(S, S)): 0.00%; Hatching rate (%), Replicate 3 (eggs of Aleyrodidae; listed as 19′-(S, S)): 0.00%; Number of hatched larvae 5 days after insecticide delivery, Replicate 1 (eggs of Aleyrodidae; listed as 19′-(S, S)): 0; Number of hatched larvae 5 days after insecticide delivery, Replicate 2 (eggs of Aleyrodidae; listed as 19′-(S, S)): 0; Number of hatched larvae 5 days after insecticide delivery, Replicate 3 (eggs of Aleyrodidae; listed as 19′-(S, S)): 0; Number of hatched larvae 4 days after insecticide delivery, Replicate 1 ([2]; listed as 19′-(S, S)): 0; Number of hatched larvae 4 days after insecticide delivery, Replicate 2 ([2]; listed as 19′-(S, S)): 0; Number of hatched larvae 4 days after insecticide delivery, Replicate 3 ([2]; listed as 19′-(S, S)): 0; Hatching rate (%), Replicate 1 ([2]; listed as 19′-(S, S)): 0.00%; Hatching rate (%), Replicate 2 ([2]; listed as 19′-(S, S)): 0.00%; Hatching rate (%), Replicate 3 ([2]; listed as 19′-(S, S)): 0.00%
CC(COS(=O)OCCF)Oc1ccc(Cl)cc1Cl (stereo not drawn) [Compound 1] | 72.22 | 67.92 | 20 | 17 | 32.58 | 38.30 | 42 | 29 | 0.00 | 1.64 | 53 | 60 | excellent inhibitory effects | strong inhibitory activities | strong inhibitory activities | 0.00 | 1.50 | 0.00 | 0 | 2 | Number of hatched larvae 5 days after insecticide delivery, Replicate 3 (eggs of Aleyrodidae): 0; Number of hatched larvae 4 days after insecticide delivery, Replicate 1 [2]: 7; Number of hatched larvae 4 days after insecticide delivery, Replicate 2 [2]: 6; Number of hatched larvae 4 days after insecticide delivery, Replicate 3 [2]: 6; Hatching rate (%), Replicate 1 [2]: 6.25%; Hatching rate (%), Replicate 2 [2]: 6.38%; Hatching rate (%), Replicate 3 [2]: 6.06%
CC(COc1ccc(Cl)cc1Cl)OS(=O)OCCF (stereo not drawn) [Compound 1′] | 69.81 | 70.83 | 16 | 21 | 36.24 | 31.11 | 42 | 31 | 0.00 | 1.69 | 47 | 58 | excellent inhibitory effects | strong inhibitory activities | strong inhibitory activities | 1.87 | 0.00 | 1.14 | 2 | 0 | Number of hatched larvae 5 days after insecticide delivery, Replicate 3 (eggs of Aleyrodidae): 1; Number of hatched larvae 4 days after insecticide delivery, Replicate 1 [2]: 6; Number of hatched larvae 4 days after insecticide delivery, Replicate 2 [2]: 4; Number of hatched larvae 4 days after insecticide delivery, Replicate 3 [2]: 7; Hatching rate (%), Replicate 1 [2]: 5.88%; Hatching rate (%), Replicate 2 [2]: 4.17%; Hatching rate (%), Replicate 3 [2]: 6.60%
